According to US10947252B2, “Inhibitors of KEAP1-Nrf2 protein-protein interaction” (Janssen Pharmaceutica NV, priority 2018, dated 2021):

Key:
[1] = molecular target: Kelch domain of human KEAP1 (321-624 aa) (Homo sapiens (Human), UniProt Q14145); experiment: KEAP1 KELCH ThermoFluor binding assay; conditions: KEAP Kelch […], 1,8-ANS, pH 7.0, average of results obtained, read-out: Tf Kd;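 note: Ligand-induced melting temperature shift of E. coli-expressed KEAP1 Kelch protein, Kd estimated from concentration-response curves of ΔTm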
[2] = tested on: Glo-Response ARE-luc2P HEK293 cell line; experiment: ARE luciferase reporter cell-based assay; conditions: Homo sapiens, HEK293, 24 h, average of results obtained;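 note: luciferase signal tracks Nrf2 activation of the ARE once compounds disrupt KEAP1-Nrf2 binding, read with One-Glo reagent, DMSO serving as low control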

Kelch domain of human KEAP1 (321-624 aa), sequence (Q14145 321-624): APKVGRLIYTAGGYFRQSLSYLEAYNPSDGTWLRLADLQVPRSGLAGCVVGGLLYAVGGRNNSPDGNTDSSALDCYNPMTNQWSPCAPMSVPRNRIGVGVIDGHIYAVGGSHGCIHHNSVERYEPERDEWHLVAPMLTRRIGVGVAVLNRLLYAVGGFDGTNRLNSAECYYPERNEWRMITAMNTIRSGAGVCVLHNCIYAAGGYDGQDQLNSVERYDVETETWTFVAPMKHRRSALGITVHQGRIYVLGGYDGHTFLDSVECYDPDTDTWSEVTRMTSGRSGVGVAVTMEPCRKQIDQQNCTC

SMILES	Kd [1]	EC50 [2]
Cc1cnc2c(c1)S(=O)(=O)N(Cc1cc([C@@H](c3ccn4c(C(F)(F)F)nnc4c3C)C(C)(C)C(=O)O)ccc1C)CC1(CC1)O2 (single isomer, unassigned) [Example 314, (*S)-2,2-Dimethyl-3-(4-methyl-3-((8′-methyl-1′,1′-dioxidospiro[cyclopropane-1,4′-pyrido[2,3-b][1,4,5]oxathiazepin]-2′(3′H)-yl)methyl)phenyl)-3-(8-methyl-3-(trifluoromethyl)-[1,2,4]triazolo[4,3-a]pyridin-7-yl)propanoic Acid]	< 1 nM	1 nM
Cc1ccc([C@@H](c2ccn3c(C(F)(F)F)nnc3c2)C(C)(C)C(=O)O)cc1CN1CC2(CCOCC2)Oc2ncccc2S1(=O)=O (single isomer, unassigned) [Example 320, (*S)-3-(3-((1′,1′-Dioxido-2,3,5,6-tetrahydrospiro[pyran-4,4′-pyrido[2,3-b][1,4,5]oxathiazepin]-2′(3′H)-yl)methyl)-4-methylphenyl)-2,2-dimethyl-3-(3-(trifluoromethyl)-[1,2,4]triazolo[4,3-a]pyridin-7-yl)propanoic Acid]	831 nM	19400 nM
Cc1ccc([C@H](c2ccn3c(C(F)(F)F)nnc3c2)C(C)(C)C(=O)O)cc1CN1CC2(CCOCC2)Oc2ncccc2S1(=O)=O (single isomer, unassigned) [Example 321, (*R)-3-(3-((1′,1′-Dioxido-2,3,5,6-tetrahydrospiro[pyran-4,4′-pyrido[2,3-b][1,4,5]oxathiazepin]-2′(3′H)-yl)methyl)-4-methylphenyl)-2,2-dimethyl-3-(3-(trifluoromethyl)-[1,2,4]triazolo[4,3-a]pyridin-7-yl)propanoic Acid]	< 1 nM	22 nM
Cc1ccc([C@H](c2ccn3c(C(F)(F)F)nnc3c2C)C(C)(C)C(=O)O)nc1CN1CC2(CCOCC2)Oc2nc(OCCN3CCOCC3)ccc2S1(=O)=O (single isomer, unassigned) [Example 326, (*R)-2,2-Dimethyl-3-(8-methyl-3-(trifluoromethyl)-[1,2,4]triazolo[4,3-a]pyridin-7-yl)-3-(5-methyl-6-((7′-(2-morpholinoethoxy)-1′,1′-dioxido-2,3,5,6-tetrahydrospiro[pyran-4,4′-pyrido[2,3-b][1,4,5]oxathiazepin]-2′(3′H)-yl)methyl)pyridin-2-yl)propanoic Acid]	3240 nM	4600 nM
Cc1ccc([C@@H](c2ccc3c(nnn3CC3CC3)c2C)C(C)(C)C(=O)O)nc1CN1CC2(CCOCC2)Oc2nc(OCCN3CCOCC3)ccc2S1(=O)=O (single isomer, unassigned) [Example 328, (*S)-3-(1-(Cyclopropylmethyl)-4-methyl-1H-benzo[d][1,2,3]triazol-5-yl)-2,2-dimethyl-3-(5-methyl-6-((7′-(2-morpholinoethoxy)-1′,1′-dioxido-2,3,5,6-tetrahydrospiro[pyran-4,4′-pyrido[2,3-b][1,4,5]oxathiazepin]-2′(3′H)-yl)methyl)pyridin-2-yl)propanoic Acid]	< 1 nM	3.3 nM
Cc1ccc([C@H](c2ccc3c(nnn3CC3CC3)c2C)C(C)(C)C(=O)O)nc1CN1CC2(CCOCC2)Oc2nc(OCCN3CCOCC3)ccc2S1(=O)=O (single isomer, unassigned) [Example 329, (*R)-3-(1-(Cyclopropylmethyl)-4-methyl-1H-benzo[d][1,2,3]triazol-5-yl)-2,2-dimethyl-3-(5-methyl-6-((7′-(2-morpholinoethoxy)-1′,1′-dioxido-2,3,5,6-tetrahydrospiro[pyran-4,4′-pyrido[2,3-b][1,4,5]oxathiazepin]-2′(3′H)-yl)methyl)pyridin-2-yl)propanoic Acid]	1880 nM	1900 nM
Cc1cnc2c(c1)S(=O)(=O)N(Cc1cc([C@@H](c3cc4cc(C)nnc4n3C)C(C)(C)C(=O)O)ccc1C)CC1(CC1)O2 (single isomer, unassigned) [Example 330, (*S)-3-(3,7-Dimethyl-7H-pyrrolo[2,3-c]pyridazin-6-yl)-2,2-dimethyl-3-(4-methyl-3-((8′-methyl-1′,1′-dioxidospiro[cyclopropane-1,4′-pyrido[2,3-b][1,4,5]oxathiazepin]-2′(3′H)-yl)methyl)phenyl)propanoic Acid]	1590 nM	7520 nM
Cc1cnc2c(c1)S(=O)(=O)N(Cc1cc([C@@H](c3ccn4c(C(F)F)nnc4c3C)C(C)(C)C(=O)O)ncc1C)CC1(CC1)O2 (single isomer, unassigned) [Example 332, (*S)-3-(3-(Difluoromethyl)-8-methyl-[1,2,4]triazolo[4,3-a]pyridin-7-yl)-2,2-dimethyl-3-(5-methyl-4-((8′-methyl-1′,1′-dioxidospiro[cyclopropane-1,4′-pyrido[2,3-b][1,4,5]oxathiazepin]-2′(3′H)-yl)methyl)pyridin-2-yl)propanoic acid]	< 1 nM	25.6 nM

Further lines, with some results ahead:

Kd [1]	SMILES	EC50 [2]
< 1 nM	CCn1nnc2c(C)c([C@@H](CC(=O)O)c3ccc(C)c(CN4C[C@H]5CCCCN5c5ncccc5S4(=O)=O)n3)ccc21 (single isomer, unassigned) [Example 306, (*R)-3-(6-(((*R)-5,5-Dioxido-7,7a,8,9,10,11-hexahydro-6H-dipyrido[2,1-d:2′,3′-f][1,2,5]thiadiazepin-6-yl)methyl)-5-methylpyridin-2-yl)-3-(1-ethyl-4-methyl-1H-benzo[d][1,2,3]triazol-5-yl)propanoic Acid]	9.4 nM
< 1 nM	Cc1ccc([C@H](CC(=O)O)c2ccn3c(C(F)(F)F)nnc3c2C)cc1CN1CC2(CC2)Oc2ncc(F)cc2S1(=O)=O (single isomer, unassigned) [Example 311, (*S)-3-(3-((8′-Fluoro-1′,1′-dioxidospiro[cyclopropane-1,4′-pyrido[2,3-b][1,4,5]oxathiazepin]-2′(3′H)-yl)methyl)-4-methylphenyl)-3-(8-methyl-3-(trifluoromethyl)-[1,2,4]triazolo[4,3-a]pyridin-7-yl)propanoic Acid]	9.3 nM
287 nM	Cc1cnc2c(c1)S(=O)(=O)N(Cc1cc([C@H](c3ccn4c(C(F)(F)F)nnc4c3C)C(C)(C)C(=O)O)ccc1C)CC1(CC1)O2 (single isomer, unassigned) [Example 315, (*R)-2,2-Dimethyl-3-(4-methyl-3-((8′-methyl-1′,1′-dioxidospiro[cyclopropane-1,4′-pyrido[2,3-b][1,4,5]oxathiazepin]-2′(3′H)-yl)methyl)phenyl)-3-(8-methyl-3-(trifluoromethyl)-[1,2,4]triazolo[4,3-a]pyridin-7-yl)propanoic Acid]	148 nM
< 1 nM	Cc1ccc([C@@H](c2ccn3c(C(F)(F)F)nnc3c2C)C(C)(C)C(=O)O)cc1CN1CC2(CC2)Oc2ncccc2S1(=O)=O (single isomer, unassigned) [Example 317, (*S)-3-(3-((1′,1′-Dioxidospiro[cyclopropane-1,4′-pyrido[2,3-b][1,4,5]oxathiazepin]-2′(3′H)-yl)methyl)-4-methylphenyl)-2,2-dimethyl-3-(8-methyl-3-(trifluoromethyl)-[1,2,4]triazolo[4,3-a]pyridin-7-yl)propanoic Acid]	1.9 nM
1990 nM	Cc1ccc([C@H](c2ccn3c(C(F)(F)F)nnc3c2C)C(C)(C)C(=O)O)cc1CN1CC2(CC2)Oc2ncccc2S1(=O)=O (single isomer, unassigned) [Example 318, (*R)-3-(3-((1′,1′-Dioxidospiro[cyclopropane-1,4′-pyrido[2,3-b][1,4,5]oxathiazepin]-2′(3′H)-yl)methyl)-4-methylphenyl)-2,2-dimethyl-3-(8-methyl-3-(trifluoromethyl)-[1,2,4]triazolo[4,3-a]pyridin-7-yl)propanoic Acid]	598 nM
298 nM	Cc1cnc2c(c1)S(=O)(=O)N(Cc1cc([C@@H](c3ccn4c(C(F)(F)F)nnc4c3)C(C)(C)C(=O)O)ccc1C)CC1(CC1)O2 (single isomer, unassigned) [Example 323, (*S)-2,2-Dimethyl-3-(4-methyl-3-((8′-methyl-1′,1′-dioxidospiro[cyclopropane-1,4′-pyrido[2,3-b][1,4,5]oxathiazepin]-2′(3′H)-yl)methyl)phenyl)-3-(3-(trifluoromethyl)-[1,2,4]triazolo[4,3-a]pyridin-7-yl)propanoic Acid]	16200 nM
< 1 nM	Cc1cnc2c(c1)S(=O)(=O)N(Cc1cc([C@H](c3ccn4c(C(F)(F)F)nnc4c3)C(C)(C)C(=O)O)ccc1C)CC1(CC1)O2 (single isomer, unassigned) [Example 324, (*R)-2,2-Dimethyl-3-(4-methyl-3-((8′-methyl-1′,1′-dioxidospiro[cyclopropane-1,4′-pyrido[2,3-b][1,4,5]oxathiazepin]-2′(3′H)-yl)methyl)phenyl)-3-(3-(trifluoromethyl)-[1,2,4]triazolo[4,3-a]pyridin-7-yl)propanoic Acid]	16.7 nM
< 1 nM	Cc1ccc([C@@H](c2ccn3c(C(F)(F)F)nnc3c2C)C(C)(C)C(=O)O)nc1CN1CC2(CCOCC2)Oc2nc(OCCN3CCOCC3)ccc2S1(=O)=O (single isomer, unassigned) [Example 325, (*S)-2,2-Dimethyl-3-(8-methyl-3-(trifluoromethyl)-[1,2,4]triazolo[4,3-a]pyridin-7-yl)-3-(5-methyl-6-((7′-(2-morpholinoethoxy)-1′,1′-dioxido-2,3,5,6-tetrahydrospiro[pyran-4,4′-pyrido[2,3-b][1,4,5]oxathiazepin]-2′(3′H)-yl)methyl)pyridin-2-yl)propanoic Acid]	17.2 nM
< 1 nM	Cc1cnc2c(c1)S(=O)(=O)N(Cc1cc([C@H](c3cc4cc(C)nnc4n3C)C(C)(C)C(=O)O)ccc1C)CC1(CC1)O2 (single isomer, unassigned) [Example 331, (*R)-3-(3,7-Dimethyl-7H-pyrrolo[2,3-c]pyridazin-6-yl)-2,2-dimethyl-3-(4-methyl-3-((8′-methyl-1′,1′-dioxidospiro[cyclopropane-1,4′-pyrido[2,3-b][1,4,5]oxathiazepin]-2′(3′H)-yl)methyl)phenyl)propanoic Acid]	17.1 nM
